# ChEMBL document CHEMBL4251615, “Discovery of anilino-furo[2,3-d]pyrimidine derivatives as dual inhibitors of EGFR/HER2 tyrosine kinase and their anticancer activity” (Eur J Med Chem, 2018)
# Tested on: UO-31
# Assay: Growth inhibition of human UO31 cells assessed as cell growth at 10 uM incubated for 48 hrs by sulforhodamine B assay relative to control
# Assay type: functional
# Conditions: UO-31, 48 h, read-out: Activity
row,SMILES,growth at 10 µM [%]
1,Cc1cccc(Nc2ncnc3oc(C)c(C(=O)NCCN4CCOCC4)c23)c1,75.6
2,CCOC(=O)c1c(C)oc2ncnc(Nc3ccc(F)cc3)c12,92.4

# Tested on: M14
# Assay: Growth inhibition of human M14 cells assessed as cell growth at 10 uM incubated for 48 hrs by sulforhodamine B assay relative to control
# Assay type: functional
# Conditions: M14, 48 h, read-out: Activity
row,SMILES,growth at 10 µM [%]
1,Cc1cccc(Nc2ncnc3oc(C)c(C(=O)NCCN4CCOCC4)c23)c1,99.8
2,CCOC(=O)c1c(C)oc2ncnc(Nc3ccc(F)cc3)c12,103

# Tested on: SK-MEL-5
# Assay: Growth inhibition of human SK-MEL-5 cells assessed as cell growth at 10 uM incubated for 48 hrs by sulforhodamine B assay relative to control
# Assay type: functional
# Conditions: SK-MEL-5, 48 h, read-out: Activity
row,SMILES,growth at 10 µM [%]
1,Cc1cccc(Nc2ncnc3oc(C)c(C(=O)NCCN4CCOCC4)c23)c1,96.9
2,CCOC(=O)c1c(C)oc2ncnc(Nc3ccc(F)cc3)c12,102

# Tested on: T47D
# Assay: Growth inhibition of human T47D cells assessed as cell growth at 10 uM incubated for 48 hrs by sulforhodamine B assay relative to control
# Assay type: functional
# Conditions: read-out: Activity
row,SMILES,growth at 10 µM [%]
1,Cc1cccc(Nc2ncnc3oc(C)c(C(=O)NCCN4CCOCC4)c23)c1,106
2,CCOC(=O)c1c(C)oc2ncnc(Nc3ccc(F)cc3)c12,99.6

# Tested on: A498
# Assay: Growth inhibition of human A498 cells assessed as cell growth at 10 uM incubated for 48 hrs by sulforhodamine B assay relative to control
# Assay type: functional
# Conditions: A498, 48 h, read-out: Activity
row,SMILES,growth at 10 µM [%]
1,Cc1cccc(Nc2ncnc3oc(C)c(C(=O)NCCN4CCOCC4)c23)c1,68.9
2,CCOC(=O)c1c(C)oc2ncnc(Nc3ccc(F)cc3)c12,80.4

# Tested on: SF-539
# Assay: Growth inhibition of human SF539 cells assessed as cell growth at 10 uM incubated for 48 hrs by sulforhodamine B assay relative to control
# Assay type: functional
# Conditions: SF-539, 48 h, read-out: Activity
row,SMILES,growth at 10 µM [%]
1,Cc1cccc(Nc2ncnc3oc(C)c(C(=O)NCCN4CCOCC4)c23)c1,95.4
2,CCOC(=O)c1c(C)oc2ncnc(Nc3ccc(F)cc3)c12,93.6

# Tested on: UACC-62
# Assay: Growth inhibition of human UACC62 cells assessed as cell growth at 10 uM incubated for 48 hrs by sulforhodamine B assay relative to control
# Assay type: functional
# Conditions: UACC-62, 48 h, read-out: Activity
row,SMILES,growth at 10 µM [%]
1,Cc1cccc(Nc2ncnc3oc(C)c(C(=O)NCCN4CCOCC4)c23)c1,84.6
2,CCOC(=O)c1c(C)oc2ncnc(Nc3ccc(F)cc3)c12,88.6

# Tested on: NCI-H460
# Assay: Growth inhibition of human NCI-H460 cells assessed as cell growth at 10 uM incubated for 48 hrs by sulforhodamine B assay relative to control
# Assay type: functional
# Conditions: NCI-H460, 48 h, read-out: Activity
row,SMILES,growth at 10 µM [%]
1,Cc1cccc(Nc2ncnc3oc(C)c(C(=O)NCCN4CCOCC4)c23)c1,105
2,CCOC(=O)c1c(C)oc2ncnc(Nc3ccc(F)cc3)c12,100

# Tested on: OVCAR-5
# Assay: Growth inhibition of human OVCAR5 cells assessed as cell growth at 10 uM incubated for 48 hrs by sulforhodamine B assay relative to control
# Assay type: functional
# Conditions: OVCAR-5, 48 h, read-out: Activity
row,SMILES,growth at 10 µM [%]
1,Cc1cccc(Nc2ncnc3oc(C)c(C(=O)NCCN4CCOCC4)c23)c1,81.8
2,CCOC(=O)c1c(C)oc2ncnc(Nc3ccc(F)cc3)c12,91.4

# Tested on: CCRF-CEM
# Assay: Growth inhibition of human CCRF-CEM cells assessed as cell growth at 10 uM incubated for 48 hrs by sulforhodamine B assay relative to control
# Assay type: functional
# Conditions: read-out: Activity
row,SMILES,growth at 10 µM [%]
1,Cc1cccc(Nc2ncnc3oc(C)c(C(=O)NCCN4CCOCC4)c23)c1,99.7
2,CCOC(=O)c1c(C)oc2ncnc(Nc3ccc(F)cc3)c12,31.3

# Tested on: OVCAR-8
# Assay: Growth inhibition of human OVCAR8 cells assessed as cell growth at 10 uM incubated for 48 hrs by sulforhodamine B assay relative to control
# Assay type: functional
# Conditions: OVCAR-8, 48 h, read-out: Activity
row,SMILES,growth at 10 µM [%]
1,Cc1cccc(Nc2ncnc3oc(C)c(C(=O)NCCN4CCOCC4)c23)c1,109
2,CCOC(=O)c1c(C)oc2ncnc(Nc3ccc(F)cc3)c12,106

# Tested on: SR
# Assay: Growth inhibition of human SR cells assessed as cell growth at 10 uM incubated for 48 hrs by sulforhodamine B assay relative to control
# Assay type: functional
# Conditions: read-out: Activity
row,SMILES,growth at 10 µM [%]
1,Cc1cccc(Nc2ncnc3oc(C)c(C(=O)NCCN4CCOCC4)c23)c1,126

# Tested on: NCI-H226
# Assay: Growth inhibition of human NCI-H226 cells assessed as cell growth at 10 uM incubated for 48 hrs by sulforhodamine B assay relative to control
# Assay type: functional
# Conditions: NCI-H226, 48 h, read-out: Activity
row,SMILES,growth at 10 µM [%]
1,Cc1cccc(Nc2ncnc3oc(C)c(C(=O)NCCN4CCOCC4)c23)c1,94.9
2,CCOC(=O)c1c(C)oc2ncnc(Nc3ccc(F)cc3)c12,100

# Tested on: COLO 205
# Assay: Growth inhibition of human COLO205 cells assessed as cell growth at 10 uM incubated for 48 hrs by sulforhodamine B assay relative to control
# Assay type: functional
# Conditions: COLO 205, 48 h, read-out: Activity
row,SMILES,growth at 10 µM [%]
1,Cc1cccc(Nc2ncnc3oc(C)c(C(=O)NCCN4CCOCC4)c23)c1,101
2,CCOC(=O)c1c(C)oc2ncnc(Nc3ccc(F)cc3)c12,102

# Tested on: NCI/ADR-RES
# Assay: Growth inhibition of human NCI/ADR-RES cells assessed as cell growth at 10 uM incubated for 48 hrs by sulforhodamine B assay relative to control
# Assay type: functional
# Conditions: read-out: Activity
row,SMILES,growth at 10 µM [%]
1,Cc1cccc(Nc2ncnc3oc(C)c(C(=O)NCCN4CCOCC4)c23)c1,94.7
2,CCOC(=O)c1c(C)oc2ncnc(Nc3ccc(F)cc3)c12,101

# Target: Epidermal growth factor receptor (Homo sapiens, UniProt P00533)
# Sequence (P00533 whole entry, the tested form may be a part): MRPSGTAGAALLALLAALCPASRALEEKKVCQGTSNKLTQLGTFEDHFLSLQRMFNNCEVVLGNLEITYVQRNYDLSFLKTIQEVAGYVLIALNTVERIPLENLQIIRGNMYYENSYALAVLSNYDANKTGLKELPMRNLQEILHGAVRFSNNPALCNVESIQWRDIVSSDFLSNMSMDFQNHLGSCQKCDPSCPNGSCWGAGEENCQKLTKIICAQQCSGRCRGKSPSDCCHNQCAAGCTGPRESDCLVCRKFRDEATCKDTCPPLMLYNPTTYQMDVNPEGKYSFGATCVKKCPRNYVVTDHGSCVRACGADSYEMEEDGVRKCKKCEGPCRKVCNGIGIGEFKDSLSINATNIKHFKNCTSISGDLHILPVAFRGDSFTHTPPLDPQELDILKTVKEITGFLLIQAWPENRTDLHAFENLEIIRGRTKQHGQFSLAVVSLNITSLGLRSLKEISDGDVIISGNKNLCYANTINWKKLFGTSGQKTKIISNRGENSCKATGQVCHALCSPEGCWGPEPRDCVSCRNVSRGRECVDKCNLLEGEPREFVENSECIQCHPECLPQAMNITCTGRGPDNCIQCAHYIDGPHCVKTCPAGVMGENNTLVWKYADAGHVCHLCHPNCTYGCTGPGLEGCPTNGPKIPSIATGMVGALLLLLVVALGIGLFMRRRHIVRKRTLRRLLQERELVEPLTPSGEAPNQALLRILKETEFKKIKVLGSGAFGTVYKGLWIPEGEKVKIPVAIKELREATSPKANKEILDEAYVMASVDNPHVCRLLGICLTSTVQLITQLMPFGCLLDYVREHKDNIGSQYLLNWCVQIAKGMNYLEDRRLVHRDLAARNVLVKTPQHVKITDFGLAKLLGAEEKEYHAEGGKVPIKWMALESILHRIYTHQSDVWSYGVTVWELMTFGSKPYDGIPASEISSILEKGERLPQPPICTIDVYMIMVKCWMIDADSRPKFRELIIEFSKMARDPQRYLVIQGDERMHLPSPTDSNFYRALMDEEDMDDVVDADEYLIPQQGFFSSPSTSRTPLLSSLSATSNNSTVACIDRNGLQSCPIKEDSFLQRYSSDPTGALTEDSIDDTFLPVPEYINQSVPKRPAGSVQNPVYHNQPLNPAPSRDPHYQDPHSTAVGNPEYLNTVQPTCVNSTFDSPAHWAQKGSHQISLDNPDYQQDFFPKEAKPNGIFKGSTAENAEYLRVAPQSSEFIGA
# Assay: Inhibition of recombinant human C-terminal His/N-terminal GST-tagged EGFR (668 to 1210 residues) expressed in baculovirus infected Sf9 cells at 10 uM using biotin-labeled poly[Glu:Tyr] (4:1) as substrate after 30 mins by Kinase-Glo plus luminescence assay relative to control
# Conditions: not given
row,SMILES,inhibition [%]
1,Cc1cccc(Nc2ncnc3oc(C)c(C(=O)NCCN4CCOCC4)c23)c1,30
2,CCOC(=O)c1c(C)oc2ncnc(Nc3ccc(F)cc3)c12,6

# Tested on: SK-MEL-28
# Assay: Growth inhibition of human SK-MEL-28 cells assessed as cell growth at 10 uM incubated for 48 hrs by sulforhodamine B assay relative to control
# Assay type: functional
# Conditions: SK-MEL-28, 48 h, read-out: Activity
row,SMILES,growth at 10 µM [%]
1,Cc1cccc(Nc2ncnc3oc(C)c(C(=O)NCCN4CCOCC4)c23)c1,100
2,CCOC(=O)c1c(C)oc2ncnc(Nc3ccc(F)cc3)c12,97.5

# Tested on: KM12
# Assay: Growth inhibition of human KM12 cells assessed as cell growth at 10 uM incubated for 48 hrs by sulforhodamine B assay relative to control
# Assay type: functional
# Conditions: KM12, 48 h, read-out: Activity
row,SMILES,growth at 10 µM [%]
1,Cc1cccc(Nc2ncnc3oc(C)c(C(=O)NCCN4CCOCC4)c23)c1,94.6
2,CCOC(=O)c1c(C)oc2ncnc(Nc3ccc(F)cc3)c12,97.6

# Tested on: DU-145
# Assay: Growth inhibition of human DU145 cells assessed as cell growth at 10 uM incubated for 48 hrs by sulforhodamine B assay relative to control
# Assay type: functional
# Conditions: DU-145, 48 h, read-out: Activity
row,SMILES,growth at 10 µM [%]
1,Cc1cccc(Nc2ncnc3oc(C)c(C(=O)NCCN4CCOCC4)c23)c1,99.4
2,CCOC(=O)c1c(C)oc2ncnc(Nc3ccc(F)cc3)c12,101

# Tested on: SK-OV-3
# Assay: Growth inhibition of human SKOV3 cells assessed as cell growth at 10 uM incubated for 48 hrs by sulforhodamine B assay relative to control
# Assay type: functional
# Conditions: SK-OV-3, 48 h, read-out: Activity
row,SMILES,growth at 10 µM [%]
1,Cc1cccc(Nc2ncnc3oc(C)c(C(=O)NCCN4CCOCC4)c23)c1,111
2,CCOC(=O)c1c(C)oc2ncnc(Nc3ccc(F)cc3)c12,104

# Tested on: HCT-15
# Assay: Growth inhibition of human HCT15 cells assessed as cell growth at 10 uM incubated for 48 hrs by sulforhodamine B assay relative to control
# Assay type: functional
# Conditions: HCT-15, 48 h, read-out: Activity
row,SMILES,growth at 10 µM [%]
1,Cc1cccc(Nc2ncnc3oc(C)c(C(=O)NCCN4CCOCC4)c23)c1,94.9

# Tested on: K562
# Assay: Growth inhibition of human K562 cells assessed as cell growth at 10 uM incubated for 48 hrs by sulforhodamine B assay relative to control
# Assay type: functional
# Conditions: K562, 48 h, read-out: Activity
row,SMILES,growth at 10 µM [%]
1,Cc1cccc(Nc2ncnc3oc(C)c(C(=O)NCCN4CCOCC4)c23)c1,98.3

# Tested on: CAKI-1
# Assay: Growth inhibition of human Caki1 cells assessed as cell growth at 10 uM incubated for 48 hrs by sulforhodamine B assay relative to control
# Assay type: functional
# Conditions: CAKI-1, 48 h, read-out: Activity
row,SMILES,growth at 10 µM [%]
1,Cc1cccc(Nc2ncnc3oc(C)c(C(=O)NCCN4CCOCC4)c23)c1,90.2
2,CCOC(=O)c1c(C)oc2ncnc(Nc3ccc(F)cc3)c12,97.9

# Tested on: LOX IMVI
# Assay: Growth inhibition of human LOXIMVI cells assessed as cell growth at 10 uM incubated for 48 hrs by sulforhodamine B assay relative to control
# Assay type: functional
# Conditions: read-out: Activity
row,SMILES,growth at 10 µM [%]
1,Cc1cccc(Nc2ncnc3oc(C)c(C(=O)NCCN4CCOCC4)c23)c1,93.2
2,CCOC(=O)c1c(C)oc2ncnc(Nc3ccc(F)cc3)c12,99.5

# Tested on: SNB-75
# Assay: Growth inhibition of human SNB75 cells assessed as cell growth at 10 uM incubated for 48 hrs by sulforhodamine B assay relative to control
# Assay type: functional
# Conditions: SNB-75, 48 h, read-out: Activity
row,SMILES,growth at 10 µM [%]
1,Cc1cccc(Nc2ncnc3oc(C)c(C(=O)NCCN4CCOCC4)c23)c1,82.4
2,CCOC(=O)c1c(C)oc2ncnc(Nc3ccc(F)cc3)c12,94.7

# Tested on: HOP-62
# Assay: Growth inhibition of human HOP62 cells assessed as cell growth at 10 uM incubated for 48 hrs by sulforhodamine B assay relative to control
# Assay type: functional
# Conditions: HOP-62, 48 h, read-out: Activity
row,SMILES,growth at 10 µM [%]
1,Cc1cccc(Nc2ncnc3oc(C)c(C(=O)NCCN4CCOCC4)c23)c1,93.1
2,CCOC(=O)c1c(C)oc2ncnc(Nc3ccc(F)cc3)c12,101
